Patent US20140235856A1, “FIBROBLASTS CELLULAR MODEL FOR ASSESSING EFFICACY OF CANCER TREATMENTS BY SHH/PTCH PATHWAY ANTAGONISTS” (CNRS, priority 2011, published 2014)

Test system: SHH/PTCH pathway (GLI1 mRNA) in NBCCS 6 E6/E7 fibroblasts
Experiment: Comparative Q-PCR analysis of GLI1 mRNA accumulation after treatment of fibroblast cell lines with purmorphamine
Assay type: cell-based, human
Settings: NBCCS 6 E6/E7 fibroblasts compared with CTRL E6/E7 fibroblasts, same experimental conditions; 0.1% DMSO; Q-PCR (FIG. 4)
Procedure: Human primary fibroblasts (named CTRL or NBCCS) were isolated from a healthy non photo-exposed skin biopsy of either a control patient or a patient with caracteristic NBCCS after informed consent (Otto et al., 1999; Valin et al., 2009)
The CTRL and NBCCS6 cell lines were then immortalized by retroviral transduction with pLE6/E7SN resulting in CTRL and NBCCS-E6-E7 (FIG. 1) (Halbert et al., 1991, 1992). Cells were grown at 37° C. in a humified atmosphere containing 5% CO2, DMEM medium, 50 U/ml penicillin, 50 μg/ml streptomycin, 0.125 μg/ml amphotericin B, 2 mM L-Glutamine, 1 mM Sodium pyruvate, 1× non essential amino acids.
Total RNA was extracted with RNeasy® Mini kit according to manufacturer's instructions (Qiagen, Hilden, Germany). Reverse transcription was performed on 1 μg total RNA with Superscript II Reverse Transcriptase (Roche Applied Science, Basel, Switzerland) by using random primers. Q-PCR was carried out using the 7900 HT Fast Real-Time PCR System (Applied Biosystems, Foster City, Calif., USA).
To evaluate small Molecules Modulators of the SHH/PTCH pathway, the Purmorphamine (SMO agonist) was used. Purmorphamine (SMO agonist) was diluted in DMSO at stock concentrations of 50 mM and 10 mM, respectively. To avoid side effects and toxicity, the final concentration of DMSO was fixed to 0.1% DMSO.

With `c1ccc2c(Oc3nc(Nc4ccc(N5CCOCC5)cc4)c4ncn(C5CCCCC5)c4n3)cccc2c1` [Purmorphamine] the “GLI1 mRNA accumulation response, NBCCS 6 E6/E7 versus CTRL cells” value was 7 × times.
